# Laboratory results: US4370474A, “11-Deoxy-carminomycin compounds” (Farmitalia Carlo Erba S.p.A., priority 1978, dated 1983)
# Counter-ions that a name gives are not always drawn. Like-named read-outs stand apart in the source and are kept apart here.
# What was measured:
# HeLa cells = assay: Effect on HeLa cells viability in vitro; assay type: cell-based; conditions: Homo sapiens, read-out: Effect of HeLa cells viability in vitro ID50
# Procedure: (§1) The new antibiotics W, Y and Z have been tested against HeLa cells in vitro (time of exposure to the drugs: 24 hours), and on L 1210 and P 388 leukemia in mice in comparison with daunorubicin.
# (a) HeLa cells were exposed to the drugs for 24 hrs, then plated.
# P 388 leukemia = assay: Antitumor activity on P 388 leukemia in mice; assay type: in vivo; conditions: for P-388 Toxic deaths: evaluated on macroscopic findings
# Procedure: as §1
# (§2) (b) Mice were treated i.p. on day 1 after tumor cell inoculation.
# (§3) (c) Evaluated on the basis of macroscopic findings.
# L 1210 leukemia = assay: Antitumor activity on L 1210 leukemia in mice; assay type: in vivo; conditions: for L-1210 Toxic deaths: evaluated on macroscopic findings
# Procedure: as §1, §2, §3
# Solubility = assay type: physicochemical; conditions: aglycone from acid hydrolysis
# [1] = HeLa cells exposed to the drugs for 24 hrs, then plated
# [2] = 1.0 mg/kg i.p. on day 1 after tumor cell inoculation
# [3] = 1.2 mg/kg i.p. on day 1 after tumor cell inoculation
# [4] = 1.9 mg/kg i.p. on day 1 after tumor cell inoculation
# [5] = 2.9 mg/kg i.p. on day 1 after tumor cell inoculation
# [6] = 4.4 mg/kg i.p. on day 1 after tumor cell inoculation
# [7] = 6.6 mg/kg i.p. on day 1 after tumor cell inoculation
compound,measurement,setting,value
C[C@@H]1O[C@@H](O[C@H]2C[C@](O)(C(=O)CO)Cc3cc4c(c(O)c32)C(=O)c2c(O)cccc2C4=O)C[C@H](N)[C@@H]1O [Antibiotic W.HCl],IC50,HeLa cells; [1],8.8 ng/mL
same,P-388 Toxic deaths,P 388 leukemia; 1.0 mg/kg i.p. on day 1,0/10
same,P-388 T/C,P 388 leukemia; [2],159%
same,P-388 Toxic deaths,P 388 leukemia; 1.5 mg/kg i.p. on day 1,0/20
same,P-388 T/C,P 388 leukemia; 1.5 mg/kg i.p. on day 1 after tumor cell inoculation,172%
same,P-388 Toxic deaths,P 388 leukemia; 2.25 mg/kg i.p. on day 1,0/20
same,P-388 T/C,P 388 leukemia; 2.25 mg/kg i.p. on day 1 after tumor cell inoculation,163%
same,P-388 Toxic deaths,P 388 leukemia; 3.4 mg/kg i.p. on day 1,0/10
same,P-388 T/C,P 388 leukemia; 3.4 mg/kg i.p. on day 1 after tumor cell inoculation,190%
same,P-388 Toxic deaths,P 388 leukemia; 5.0 mg/kg i.p. on day 1,1/9
same,P-388 T/C,P 388 leukemia; 5.0 mg/kg i.p. on day 1 after tumor cell inoculation,204%
CC(=O)[C@]1(O)Cc2cc3c(c(O)c2[C@@H](O[C@H]2C[C@H](N)[C@H](O)[C@H](C)O2)C1)C(=O)c1c(O)cccc1C3=O [Antibiotic Y.HCl],L-1210 T/C,L 1210 leukemia; 0.8 mg/kg i.p. on day 1 after tumor cell inoculation,111%
same,L-1210 T/C,L 1210 leukemia; [3],128%
same,L-1210 T/C,L 1210 leukemia; [4],122%
same,L-1210 Toxic deaths,L 1210 leukemia; 2.9 mg/kg i.p. on day 1,8/10
same,L-1210 T/C,L 1210 leukemia; [5],111%
same,IC50,HeLa cells; [1],9.6 ng/mL
same,P-388 T/C,P 388 leukemia; [3],145%
same,P-388 T/C,P 388 leukemia; [4],159%
CC[C@]1(O)Cc2cc3c(c(O)c2[C@@H](O[C@H]2C[C@H](N)[C@H](O)[C@H](C)O2)C1)C(=O)c1c(O)cccc1C3=O [Antibiotic Z.HCl],L-1210 T/C,L 1210 leukemia; [5],125%
same,L-1210 Toxic deaths,L 1210 leukemia; 4.4 mg/kg i.p. on day 1,2/10
same,L-1210 T/C,L 1210 leukemia; [6],131%
same,L-1210 Toxic deaths,L 1210 leukemia; 6.6 mg/kg i.p. on day 1,5/10
same,L-1210 T/C,L 1210 leukemia; [7],137%
same,IC50,HeLa cells; [1],15 ng/mL
same,P-388 T/C,P 388 leukemia; [2],140%
same,P-388 T/C,P 388 leukemia; 2.0 mg/kg i.p. on day 1 after tumor cell inoculation,140%
same,P-388 Toxic deaths,P 388 leukemia; 4.4 mg/kg i.p. on day 1,7/8
same,P-388 T/C,P 388 leukemia; [6],100%
"COc1cccc2c1C(=O)c1c(O)c3c(c(O)c1C2=O)C[C@@](O)(C(C)=O)C[C@@H]3O[C@H]1C[C@H](N)[C@H](O)[C@H](C)O1 [Daunorubicin.HCl, daunorubicin, reference compound]",L-1210 T/C,L 1210 leukemia; [5],144-150%
same,L-1210 Toxic deaths,L 1210 leukemia; 4.4 mg/kg i.p. on day 1,1/20
same,L-1210 T/C,L 1210 leukemia; [6],140-162%
same,L-1210 Toxic deaths,L 1210 leukemia; 6.6 mg/kg i.p. on day 1,3/19
same,L-1210 T/C,L 1210 leukemia; [7],144-162%
same,IC50,"HeLa cells; HeLa, 24 h",7.5 ng/mL
same,P-388 Toxic deaths,P 388 leukemia; 2.9 mg/kg i.p. on day 1,2/8
same,P-388 T/C,P 388 leukemia; [5],170%
same,P-388 Toxic deaths,P 388 leukemia; 4.4 mg/kg i.p. on day 1,6/8
same,P-388 T/C,P 388 leukemia; [6],175%
same,P-388 Toxic deaths,P 388 leukemia; 6.6 mg/kg i.p. on day 1,7/8
same,P-388 T/C,P 388 leukemia; [7],160%
CC(=O)[C@]1(O)Cc2cc3c(c(O)c2[C@@H](O)C1)C(=O)c1c(O)cccc1C3=O [aglycone of the antibiotic Y],solubility in water,Solubility,water insoluble
